Measured values published in ChEMBL document CHEMBL5244211, “Current anti-diabetic agents and their molecular targets: A review” (Eur J Med Chem, 2018).

How the values were obtained:
Glucagon receptor [1] = target: Glucagon receptor (Rattus norvegicus, UniProt P30082); test: Displacement of [125I]-glucagon from GCGR in Sprague-Dawley rat liver assessed as decrease in glucagon-stimulated CAMP production incubated for 45 mins by scintillation counter analysis; format: tissue-based
Dipeptidyl peptidase 4 [2] = target: T1, Dipeptidyl peptidase 4 (Homo sapiens, UniProt P27487); test: Inhibition of DPP4 (unknown origin)
T1 sequence (P27487 whole entry): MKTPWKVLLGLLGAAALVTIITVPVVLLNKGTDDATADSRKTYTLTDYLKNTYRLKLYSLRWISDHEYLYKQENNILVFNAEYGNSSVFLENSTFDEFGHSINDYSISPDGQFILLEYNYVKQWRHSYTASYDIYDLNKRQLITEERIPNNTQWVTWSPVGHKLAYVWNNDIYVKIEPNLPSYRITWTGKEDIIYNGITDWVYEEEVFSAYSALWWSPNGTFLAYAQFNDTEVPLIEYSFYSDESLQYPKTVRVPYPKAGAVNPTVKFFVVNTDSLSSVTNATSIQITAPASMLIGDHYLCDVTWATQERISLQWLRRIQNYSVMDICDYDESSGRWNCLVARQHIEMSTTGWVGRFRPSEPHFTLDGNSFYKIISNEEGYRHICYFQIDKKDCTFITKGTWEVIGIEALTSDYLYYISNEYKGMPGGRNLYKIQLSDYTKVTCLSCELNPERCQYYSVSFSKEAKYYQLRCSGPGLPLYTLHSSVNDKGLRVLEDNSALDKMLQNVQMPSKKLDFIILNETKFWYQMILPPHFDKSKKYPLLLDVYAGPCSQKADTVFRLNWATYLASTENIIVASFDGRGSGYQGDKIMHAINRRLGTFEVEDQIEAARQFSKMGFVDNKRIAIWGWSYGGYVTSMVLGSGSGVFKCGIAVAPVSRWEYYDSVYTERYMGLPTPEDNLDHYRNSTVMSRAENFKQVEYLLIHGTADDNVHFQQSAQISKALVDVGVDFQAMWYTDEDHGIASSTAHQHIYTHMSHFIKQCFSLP

Homo sapiens [3] = species on record: Homo sapiens; test: Selectivity ratio of IC50 for inhibition of TC-PTP (unknown origin) to IC50 for inhibition of PTP1B (unknown origin)
[4] = target: T2, Tyrosine-protein phosphatase non-receptor type 1 (Homo sapiens, UniProt P18031); test: Inhibition of PTP1B (unknown origin) using pNPP as substrate for 2 mins by spectroscopic analysis
T2 sequence (P18031 whole entry): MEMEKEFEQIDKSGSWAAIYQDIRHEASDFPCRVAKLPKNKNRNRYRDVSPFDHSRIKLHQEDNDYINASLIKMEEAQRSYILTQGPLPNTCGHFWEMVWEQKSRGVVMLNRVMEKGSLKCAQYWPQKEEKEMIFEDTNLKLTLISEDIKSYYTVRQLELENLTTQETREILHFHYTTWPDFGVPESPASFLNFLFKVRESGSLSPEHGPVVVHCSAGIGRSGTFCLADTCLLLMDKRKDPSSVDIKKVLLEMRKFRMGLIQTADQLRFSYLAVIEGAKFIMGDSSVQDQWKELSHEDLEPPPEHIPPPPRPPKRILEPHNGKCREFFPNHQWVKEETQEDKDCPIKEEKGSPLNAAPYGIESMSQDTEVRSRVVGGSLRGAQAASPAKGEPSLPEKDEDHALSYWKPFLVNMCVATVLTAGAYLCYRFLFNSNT

[5] = target: T2, Tyrosine-protein phosphatase non-receptor type 1; test: Competitive inhibition of PTP1B (unknown origin) assessed as inhibition constant using pNPP as substrate by Michaelis-Menten based analysis
[6] = target: T2, Tyrosine-protein phosphatase non-receptor type 1; test: Inhibition of PTP1B (unknown origin)
[7] = Inhibition of Calf ALR2 in presence of NADPH by UV spectrophotometric analysis; design: species or system Bos taurus
[8] = Inhibition of calf lens ALR2 using glyceraldehyde as substrate incubated for 5 mins in presence of NADPH by UV-spectrophotometric analysis; format: tissue-based, Bos taurus
Dipeptidyl peptidase 4 [9] = target: T1, Dipeptidyl peptidase 4; test: Inhibition of DPP4 (unknown origin) using Gly-Pro-AMC as substrate incubated for 20 mins by spectroscopic analysis
[10] = target: T3, Glucose-dependent insulinotropic receptor (Homo sapiens, UniProt Q8TDV5); test: Agonist activity at human GPR119 expressed in CHO-K1 cells assessed as increase in intracellular cAMP level incubated for 5 mins by fluorescence analysis; format: cell-based
T3 sequence (Q8TDV5 whole entry): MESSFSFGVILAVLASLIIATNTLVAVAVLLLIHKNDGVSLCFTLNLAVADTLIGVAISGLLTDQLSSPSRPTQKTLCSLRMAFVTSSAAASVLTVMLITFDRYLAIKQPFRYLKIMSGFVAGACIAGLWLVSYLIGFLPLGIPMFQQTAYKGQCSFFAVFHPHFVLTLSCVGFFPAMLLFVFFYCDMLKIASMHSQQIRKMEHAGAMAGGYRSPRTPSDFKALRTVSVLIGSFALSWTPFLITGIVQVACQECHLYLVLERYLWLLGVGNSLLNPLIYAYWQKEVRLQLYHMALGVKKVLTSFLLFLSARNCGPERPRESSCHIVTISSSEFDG

Glucagon receptor [11] = target: Glucagon receptor (Homo sapiens, UniProt P47871); test: Inhibition of human GCGR receptor
Glucagon receptor (Homo sapiens, UniProt P47871), sequence (P47871 whole entry): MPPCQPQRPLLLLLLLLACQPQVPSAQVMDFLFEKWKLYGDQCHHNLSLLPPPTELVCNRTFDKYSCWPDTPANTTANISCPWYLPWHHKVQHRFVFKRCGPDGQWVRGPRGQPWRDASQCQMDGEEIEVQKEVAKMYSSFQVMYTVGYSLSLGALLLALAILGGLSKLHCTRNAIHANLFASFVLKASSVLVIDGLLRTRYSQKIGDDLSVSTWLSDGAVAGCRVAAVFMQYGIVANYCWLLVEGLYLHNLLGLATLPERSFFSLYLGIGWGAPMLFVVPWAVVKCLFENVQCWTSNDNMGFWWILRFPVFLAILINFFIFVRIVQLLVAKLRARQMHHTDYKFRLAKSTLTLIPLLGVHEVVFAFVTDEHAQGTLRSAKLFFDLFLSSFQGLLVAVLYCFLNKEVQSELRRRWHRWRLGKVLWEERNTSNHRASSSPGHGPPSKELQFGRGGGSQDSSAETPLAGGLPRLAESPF

[12] = target: T4, Tyrosine-protein phosphatase non-receptor type 2 (Homo sapiens, UniProt P17706); test: Inhibition of TC-PTP (unknown origin)
T4 sequence (P17706 whole entry): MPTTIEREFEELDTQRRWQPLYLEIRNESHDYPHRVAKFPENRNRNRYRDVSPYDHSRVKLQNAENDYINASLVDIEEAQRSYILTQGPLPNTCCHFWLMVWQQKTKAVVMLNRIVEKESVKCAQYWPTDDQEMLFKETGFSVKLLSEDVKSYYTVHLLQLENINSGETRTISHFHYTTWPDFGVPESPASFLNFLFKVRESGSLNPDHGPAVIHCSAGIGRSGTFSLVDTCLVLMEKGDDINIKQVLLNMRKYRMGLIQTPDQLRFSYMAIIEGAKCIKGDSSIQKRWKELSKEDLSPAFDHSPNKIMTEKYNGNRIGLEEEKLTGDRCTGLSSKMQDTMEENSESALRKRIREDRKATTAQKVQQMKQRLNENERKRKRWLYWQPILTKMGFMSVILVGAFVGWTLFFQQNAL

[13] = target: T2, Tyrosine-protein phosphatase non-receptor type 1; test: Inhibition of human GST-tagged PTP1B expressed in Escherichia coli using pNPP as substrate by spectroscopic analysis
[14] = target: T5, Free fatty acid receptor 4 (Mus musculus) (UniProt Q7TMA4); test: In vivo agonist activity at GPR120 in C57BL/6 mouse assessed as reduction in glucose AUC levels at 30 mg/kg,po and measured upto 120 mins by OGTT test; format: functional, organism-based; design: scale not given: the % may be the effect or the level left
T5 sequence (whole entry): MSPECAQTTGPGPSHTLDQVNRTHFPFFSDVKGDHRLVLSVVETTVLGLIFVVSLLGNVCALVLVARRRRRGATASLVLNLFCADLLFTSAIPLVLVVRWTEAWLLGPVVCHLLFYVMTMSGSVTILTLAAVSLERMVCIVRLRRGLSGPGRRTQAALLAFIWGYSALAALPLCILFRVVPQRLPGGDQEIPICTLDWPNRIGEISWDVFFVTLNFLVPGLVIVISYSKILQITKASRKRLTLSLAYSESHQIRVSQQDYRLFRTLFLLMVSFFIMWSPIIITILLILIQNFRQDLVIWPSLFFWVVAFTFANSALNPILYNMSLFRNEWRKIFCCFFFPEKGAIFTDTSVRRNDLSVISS

[15] = target: T6, Free fatty acid receptor 4 (Homo sapiens, UniProt Q5NUL3); test: Agonist activity at human GPR120 expressed in CHO cells assessed as intracellular phosphorylated ERK incubated for 16 to 18 hrs by AlphaScreen SureFire assay; format: cell-based
T6 sequence (Q5NUL3 whole entry): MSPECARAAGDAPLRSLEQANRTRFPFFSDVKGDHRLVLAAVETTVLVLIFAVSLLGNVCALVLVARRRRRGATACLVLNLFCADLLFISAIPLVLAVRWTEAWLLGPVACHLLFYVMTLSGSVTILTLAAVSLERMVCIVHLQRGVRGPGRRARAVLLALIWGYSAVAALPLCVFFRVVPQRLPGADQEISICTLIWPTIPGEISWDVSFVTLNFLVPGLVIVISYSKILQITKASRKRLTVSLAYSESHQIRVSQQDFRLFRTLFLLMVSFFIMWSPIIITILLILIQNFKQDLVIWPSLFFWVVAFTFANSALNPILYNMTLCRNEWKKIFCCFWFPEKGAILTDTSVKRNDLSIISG

Homo sapiens [16] = species on record: Homo sapiens; test: Selectivity ratio of IC50 for inhibition of PTP1B (unknown origin) to IC50 for inhibition of TC-PTP (unknown origin)
[17] = target: T4, Tyrosine-protein phosphatase non-receptor type 2; test: Inhibition of TC-PTP (unknown origin) using pNPP as substrate incubated for 5 mins by absorbance based analysis

Glucagon receptor (Rattus norvegicus, UniProt P30082), sequence (P30082 whole entry): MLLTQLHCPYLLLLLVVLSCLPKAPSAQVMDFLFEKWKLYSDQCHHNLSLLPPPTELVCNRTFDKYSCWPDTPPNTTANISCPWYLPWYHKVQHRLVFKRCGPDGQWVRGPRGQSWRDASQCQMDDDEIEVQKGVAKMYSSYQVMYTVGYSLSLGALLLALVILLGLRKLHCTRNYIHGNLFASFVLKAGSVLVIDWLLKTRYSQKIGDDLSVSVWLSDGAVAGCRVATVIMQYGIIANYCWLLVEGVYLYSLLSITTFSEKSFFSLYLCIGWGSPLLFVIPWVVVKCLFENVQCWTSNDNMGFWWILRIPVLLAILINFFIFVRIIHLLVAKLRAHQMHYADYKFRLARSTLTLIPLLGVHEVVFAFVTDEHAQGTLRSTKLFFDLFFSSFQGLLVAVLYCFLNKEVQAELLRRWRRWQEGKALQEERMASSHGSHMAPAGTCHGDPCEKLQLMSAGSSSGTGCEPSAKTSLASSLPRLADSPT

In the case of CCCc1c(C(C)C)cc(C(C)C)c([C@@H](C)O)c1-c1ccc(F)cc1, the IC50 (Glucagon receptor [1]) is reported as 110 nM.
CC#CCn1c(N2CCC[C@@H](N)C2)nc2c(C)c(=O)n(Cc3nc(C)c4c(F)cccc4n3)c(=O)n21 showed an IC50 (Dipeptidyl peptidase 4 [2]) of 0.5 nM.
For C[C@H](CCC(=O)O)[C@H]1CCC2C3CC=C4C(C)(C)c5c(cnn5-c5ccc(F)cc5)C[C@]4(C)C3CC[C@@]21C (stereo partly specified), the Ratio IC50 (Homo sapiens [3]) was 11, the IC50 [4] was 420 nM and the Ki [5] was 260 nM.
Cc1cc(OCc2ccc(C(=O)O)cc2)ccc1/C=C1\SC(=S)N(Cc2ccc(C(=O)O)cc2)C1=O gave an IC50 [6] of 240 nM.
In the case of CC1=C(CC(=O)O)c2cc(F)ccc2/C1=C\c1ccc([S+](C)[O-])cc1 (stereo unspecified), the IC50 [7] is reported as 293 nM.
O=c1c2cc(O)c(O)cc2oc2cc(O)cc(O)c12 showed an IC50 [6] of 9200 nM.
With Cc1ccc(-c2nn(-c3ccccc3)cc2/C=C2\SC(=S)N(c3cccc(Br)c3)C2=O)cc1 the IC50 [8] was 1220 nM.
O=C(CNc1nc(Nc2ccc(S(=O)(=O)Nc3nccs3)cc2)nc(N2CCOCC2)n1)Nc1ccc(F)cc1 showed an IC50 (Dipeptidyl peptidase 4 [9]) of 2.32 nM.
O=c1[nH]ncn1-c1ccc(-c2ccc(N3CCNCC3)nc2)cc1 showed an EC50 [10] of 2.8 nM.
With Cc1cc(O[C@@H](CCC(F)(F)F)c2ccc(C(=O)NCCC(=O)O)cc2)cc(C)c1-c1ccc(C(C)(C)C)cc1 [ADOMEGLIVANT] the Ki (Glucagon receptor [11]) was 6.6 nM.
O=C1NC(=O)[C@@]2(CCOc3ccc(F)cc32)N1 [SORBINIL] gave an IC50 [8] of 3.1 nM.
COc1cc(/C=C2\SC(=S)N(Cc3ccc(C(=O)O)cc3)C2=O)ccc1OCc1ccccc1 showed a Ratio IC50 (Homo sapiens [3]) of 2, an IC50 [6] of 1100 nM and an IC50 [12] of 3500 nM.
Work on COc1cc(C(=O)c2c(CBr)cc(OC)c(OC)c2Br)c(Br)c(Br)c1OC yielded an IC50 [13] of 2070 nM.
Molecule O=C(O)[C@H]1C[C@@H]1CCC12CCC(c3cccc(Oc4ccccc4)c3)(CC1)O2 has an Activity [14] of 60% and an EC50 [15] of 220 nM.
O=C(c1cccc(CN2CCCN(Cc3cccc(C(=O)C(F)(F)P(=O)(O)O)c3)CCN(Cc3cccc(C(=O)C(F)(F)P(=O)(O)O)c3)CCCN(Cc3cccc(C(=O)C(F)(F)P(=O)(O)O)c3)CC2)c1)C(F)(F)P(=O)(O)O showed a Ratio IC50 (Homo sapiens [16]) of 14 and an IC50 [17] of 75 nM.
